Among the data in US9795607B2, “Substituted pyrrolopyrimidine compounds, compositions thereof, and methods of treatment therewith” (Signal Pharmaceutical, LLC, priority 2013, dated 2017) are IC50 values, retold here.

The structures appear in SMILES notation.

The assay deals with Triple negative breast cancer cell line CAL51. Description: Cell Titer Glo proliferation assay, CAL51. Conditions: Homo sapiens, CAL-51; CAL51 cell proliferation (Table 1); read-out: Act. Level. The format is cell-based. The essentials: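 CAL51 cells grown in DMEM or RPMI1640 with 10% FBS and 2 mM L-glutamine, cultured overnight, then exposed to serially diluted compound (0.2% DMSO final) for 72 h. Viability read by Cell Titer Glo luminescence.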
Background: ATP-based viability assays read luminescence as a measure of living cells.
Consider `COc1nc(Nc2ccc3[nH]ncc3c2C)nc2[nH]cc(-c3ccncc3)c12` [Example 414, 4-methoxy-N-(4-methyl-1H-indazol-5-yl)-5-(pyridin-4-yl)-7H-pyrrolo[2,3-d]pyrimidin-2-amine], for which the IC50 fell in the range of 1 to 10 µM.

For `COc1cc(C(=O)N(C)C)ncc1Nc1nc(OC)c2c(-c3ccnc(F)c3)c[nH]c2n1` [Example 415, 5-(5-(2-fluoropyridin-4-yl)-4-methoxy-7H-pyrrolo[2,3-d]pyrimidin-2-ylamino)-4-methoxy-N,N-dimethylpicolinamide], the IC50 lay within 0.4 to 1 µM.

With `COc1cc(C2CCOCC2)ncc1Nc1nc(OC)c2c(-c3ccnc(F)c3)c[nH]c2n1` [Example 416, 5-(2-fluoropyridin-4-yl)-4-methoxy-N-(4-methoxy-6-(tetrahydro-2H-pyran-4-yl)pyridin-3-yl)-7H-pyrrolo[2,3-d]pyrimidin-2-amine], the IC50 fell in the range of 1 to 10 µM.

Take `COc1cc(C(=O)NC2COC2)ccc1Nc1nc(OC)c2c(-c3cn(C)nc3Cl)c[nH]c2n1` [Example 417, 4-(5-(3-chloro-1-methyl-1H-pyrazol-4-yl)-4-methoxy-7H-pyrrolo[2,3-d]pyrimidin-2-ylamino)-3-methoxy-N-(oxetan-3-yl)benzamide]: the IC50 was in the range of 1 to 10 µM.

`COc1cc(C(=O)N(C)C)ccc1Nc1nc(OC)c2c(-c3cc(C)nc(F)c3)c[nH]c2n1` [Example 418, 4-(5-(2-fluoro-6-methylpyridin-4-yl)-4-methoxy-7H-pyrrolo[2,3-d]pyrimidin-2-ylamino)-3-methoxy-N,N-dimethylbenzamide]: the IC50 is less than 0.1 µM.

On to `COc1nc(Nc2ccc3c(cnn3C)c2C)nc2[nH]cc(-c3ccncc3)c12` [Example 419, N-(1,4-dimethyl-1H-indazol-5-yl)-4-methoxy-5-(pyridin-4-yl)-7H-pyrrolo[2,3-d]pyrimidin-2-amine], for which the IC50 is 0.1 to 0.4 µM.

On to `COc1nc(Nc2ccc(C(=O)N(C)C)cc2C)nc2[nH]cc(-c3cc(C)nc(F)c3)c12` [Example 420, 4-(5-(2-fluoro-6-methylpyridin-4-yl)-4-methoxy-7H-pyrrolo[2,3-d]pyrimidin-2-ylamino)-N,N,3-trimethylbenzamide], for which the IC50 is less than 0.1 µM.

With `CNC(=O)c1ccc(-c2c[nH]c3nc(Nc4ccc(C(=O)NC)cc4Cl)nc(OC4CCOCC4)c23)cc1` [Example 421, 3-chloro-N-methyl-4-(5-(4-(methylcarbamoyl)phenyl)-4-(tetrahydro-2H-pyran-4-yloxy)-7H-pyrrolo[2,3-d]pyrimidin-2-ylamino)benzamide], the IC50 is less than 0.1 µM.

As to `COc1cc(C(=O)NC2COC2)ccc1Nc1nc(OC)c2c(-c3cc(C)nc(F)c3)c[nH]c2n1` [Example 424, 4-(5-(2-fluoro-6-methylpyridin-4-yl)-4-methoxy-7H-pyrrolo[2,3-d]pyrimidin-2-ylamino)-3-methoxy-N-(oxetan-3-yl)benzamide], the IC50 lay within 0.1 to 0.4 µM.

Regarding `CNC(=O)c1ccc(-c2c[nH]c3nc(Nc4ccc(C(=O)NC)cc4Cl)nc(OC4CCCC4)c23)cc1` [Example 425, 3-chloro-4-(4-(cyclopentyloxy)-5-(4-(methylcarbamoyl)phenyl)-7H-pyrrolo[2,3-d]pyrimidin-2-ylamino)-N-methylbenzamide], the IC50 is less than 0.1 µM.

Take `CNC(=O)c1ccc(Nc2nc(OC(C)C)c3c(-c4ccc5nc(C)oc5c4)c[nH]c3n2)c(Cl)c1` [Example 426, 3-chloro-4-(4-isopropoxy-5-(2-methylbenzo[d]oxazol-6-yl)-7H-pyrrolo[2,3-d]pyrimidin-2-ylamino)-N-methylbenzamide]: the IC50 is less than 0.1 µM.

Regarding `CNC(=O)c1ccc(Nc2nc(OC)c3c(-c4ccc5nc(C)oc5c4)c[nH]c3n2)c(Cl)c1` [Example 427, 3-chloro-4-(4-methoxy-5-(2-methylbenzo[d]oxazol-6-yl)-7H-pyrrolo[2,3-d]pyrimidin-2-ylamino)-N-methylbenzamide], the IC50 is less than 0.1 µM.

Consider `CNC(=O)c1ccc(-c2c[nH]c3nc(Nc4ccc(C(=O)NC)cc4Cl)nc(OC)c23)cc1` [Example 428, 3-chloro-4-(4-methoxy-5-(4-(methylcarbamoyl)phenyl)-7H-pyrrolo[2,3-d]pyrimidin-2-ylamino)-N-methylbenzamide], for which the IC50 is less than 0.1 µM.

As to `CNC(=O)c1ccc(Nc2nc(OC3CCC(C)(O)CC3)c3c(-c4ccc5nc(C)oc5c4)c[nH]c3n2)c(Cl)c1` (centres unmarked) [Example 429, 3-chloro-4-(4-((1s,4s)-4-hydroxy-4-methylcyclohexyloxy)-5-(2-methylbenzo[d]oxazol-6-yl)-7H-pyrrolo[2,3-d]pyrimidin-2-ylamino)-N-methylbenzamide], the IC50 was less than 0.1 µM.

Regarding `CNC(=O)c1ccc(Nc2nc(NC3CCOCC3)c3c(-c4ccc5nc(C)oc5c4)c[nH]c3n2)c(Cl)c1` [Example 430, 3-chloro-N-methyl-4-(5-(2-methylbenzo[d]oxazol-6-yl)-4-(tetrahydro-2H-pyran-4-ylamino)-7H-pyrrolo[2,3-d]pyrimidin-2-ylamino)benzamide], the IC50 is less than 0.1 µM.

Turning to `Cc1nc2ccc(-c3c[nH]c4nc(Nc5ccc(C(=O)NCCO)cc5Cl)nc(OC5CCOCC5)c34)cc2o1` [Example 431, 3-chloro-N-(2-hydroxyethyl)-4-(5-(2-methylbenzo[d]oxazol-6-yl)-4-(tetrahydro-2H-pyran-4-yloxy)-7H-pyrrolo(2,3-d]pyrimidin-2-ylamino)benzamide], the IC50 is less than 0.1 µM.

Take `CNC(=O)c1ccc(-c2c[nH]c3nc(Nc4ccc(C(=O)NC)cc4Cl)nc(OC(C)C)c23)cc1` [Example 432, 3-chloro-4-(4-isopropoxy-5-(4-(methylcarbamoyl)phenyl)-7H-pyrrolo[2,3-d]pyrimidin-2-ylamino)-N-methylbenzamide]: the IC50 was less than 0.1 µM.

Consider `CNC(=O)c1ccc(-c2c[nH]c3nc(Nc4ccc(C(=O)NC)cc4Cl)nc(NC4CCOCC4)c23)cc1` [Example 433, 3-chloro-N-methyl-4-(5-(4-(methylcarbamoyl)phenyl)-4-(tetrahydro-2H-pyran-4-ylamino)-7H-pyrrolo[2,3-d]pyrimidin-2-ylamino)benzamide], for which the IC50 is less than 0.1 µM.

For the compound `CNC(=O)c1ccc(-c2c[nH]c3nc(Nc4ccc(C(=O)NC)cc4Cl)nc(O[C@@H]4CCOC4)c23)cc1` [Example 434, (R)-3-chloro-N-methyl-4-(5-(4-(methylcarbamoyl)phenyl)-4-(tetrahydrofuran-3-yloxy)-7H-pyrrolo[2,3-d]pyrimidin-2-ylamino)benzamide], the IC50 was less than 0.1 µM.

As to `CCc1cc(C(=O)NC)ccc1Nc1nc(OC2CCOCC2)c2c(-c3ccc4nc(C)oc4c3)c[nH]c2n1` [Example 435, 3-ethyl-N-methyl-4-(5-(2-methylbenzo[d]oxazol-6-yl)-4-(tetrahydro-2H-pyran-4-yloxy)-7H-pyrrolo[2,3-d]pyrimidin-2-ylamino)benzamide], the IC50 was less than 0.1 µM.

In the case of `CCCc1cc(C(=O)NC)ccc1Nc1nc(OC2CCOCC2)c2c(-c3ccc4nc(C)oc4c3)c[nH]c2n1` [Example 436, N-methyl-4-(5-(2-methylbenzo[d]oxazol-6-yl)-4-(tetrahydro-2H-pyran-4-yloxy)-7H-pyrrolo[2,3-d]pyrimidin-2-ylamino)-3-propylbenzamide], the IC50 was less than 0.1 µM.

As for `COc1cc(C(=O)NC2COC2)ccc1Nc1nc(OC)c2c(-c3cc(C)nc(Cl)c3)c[nH]c2n1` [Example 437, 4-(5-(2-chloro-6-methylpyridin-4-yl)-4-methoxy-7H-pyrrolo[2,3-d]pyrimidin-2-ylamino)-3-methoxy-N-(oxetan-3-yl)benzamide], the IC50 was less than 0.1 µM.

Consider `Cc1nc2ccc(-c3c[nH]c4nc(Nc5ccc(C(=O)NC6COC6)cc5Cl)nc(OC5CCOCC5)c34)cc2o1` [Example 438, 3-chloro-4-(5-(2-methylbenzo[d]oxazol-6-yl)-4-(tetrahydro-2H-pyran-4-yloxy)-7H-pyrrolo[2,3-d]pyrimidin-2-ylamino)-N-(oxetan-3-yl)benzamide], for which the IC50 was less than 0.1 µM.
